Test results published in patent publication US8809619B2, “Knockout mice for a P450 gene cluster” (ITI Scotland Limited, priority 2007, dated 2014).
“Also recorded” adds a separate entry of the source.

Assays:
[1] = 1'-Hydroxymidazolam pharmacokinetics after IV or oral midazolam; conditions: for Decrease in AUC for 1'-hydroxymidazolam compared to wild type: midazolam 1 mg/kg IV, rifampicin pre-treated
Procedure: On day 4 of the study midazolam (1 mg/kg) was administered by IV injection to animals from groups 1-6 and orally (2 mg/kg) to mice from groups 7-9. Blood samples were collected at 2, 5, 10, 20, 30, 45, 60, 90, 120 and 150 min (serial bleeds) after IV dosing, at 10, 20, 40, 60, 90, 120, 240 and 360 min after the oral dosing, for PK analysis (Table 3).
Total concentrations of 1′-hydroxymidazolam were measured following pre-treatment of blood with B-glucuronidase. The pharmacokinetics of the 1′-hydroxymidazolam after the IV injection of the parent compound are presented on FIG. 1s.

Cyp3a [2] = test: Oxidation of 7-BQ by liver microsomes
Cyp3a [3] = test: Oxidation of BFC by liver and intestinal microsomes; format: in vitro ADME, mouse
Cyp3a [4] = test: Oxidation of DBF by liver and intestinal microsomes
[5] = Procedure: The study consisted of 4 groups with 4 animals per group. […] On day 4 of the study midazolam (1 mg/kg) was administered by IP injection and 10 μL blood samples were collected at 10, 20, 40, 60, 120, 240 and 360 min for PK analysis (Table 1).
Cyp1a1 and Cyp1a2 = test: Ethoxyresorufin de-ethylation activity (EROD) of liver microsomes; format: in vivo, mouse; conditions: both strains
From the text: (B)—Ethoxyresorufin de-ethylation; (C)—methoxyresorufin de-methylation. Data are mean±SD (n=4).
Ethoxyresorufin de-ethylation activity (EROD) was similar in both Cyp3a cluster KO and wild type mouse liver microsomes. EROD is catalysed by both Cyp1a 1 and Cyp1a2 isoforms, with Cyp1a1 making the major contribution. […] There was no difference in methoxyresoryfin de-methylation (MROD) activity between wild type and Cyp3a cluster KO mice. MROD is catalysed predominantly by Cyp1a2.

Cyp2b10 and Cyp2c29 = test: 16β-Hydroxylation of testosterone by liver microsomes; conditions: liver microsomes of both transgenic strains
Cyp3a [6] = test: 6β-Hydroxylation of testosterone by liver and intestinal microsomes; conditions: Cyp3a cluster KO and Cyp3a11 KO

SMILES: OCc1ncc2n1-c1ccc(Cl)cc1C(c1ccccc1F)=NC2 [1′-hydroxymidazolam]
- Decrease in AUC for 1'-hydroxymidazolam compared to wild type ([1]; Cyp3a11 KO): ~2 times
- Decrease in AUC for 1'-hydroxymidazolam compared to wild type ([1]; Cyp3a cluster KO): ~3 times
- Terminal phase elimination of 1'-hydroxymidazolam compared to other strains ([1]; Cyp3a cluster KO, midazolam IV): slightly slower elimination

SMILES: c1ccc(COc2ccc3cccnc3c2)cc1 [7-BQ, 7-benzyloxyquinoline]
- Activity towards 7-BQ in Cyp3a cluster KO, level compared to the wild type mice (Cyp3a [2]; conclusion statement): below 20%
- 7-BQ oxidation in Cyp3a cluster KO liver microsomes, % of corresponding C57BL/6J group (Cyp3a [2]; control animals): 18%
- 7-BQ oxidation in Cyp3a cluster KO liver microsomes, % of corresponding C57BL/6J group (Cyp3a [2]; rifampicin treated animals): 6.7%

SMILES: O=c1cc(C(F)(F)F)c2ccc(OCc3ccccc3)cc2o1 [BFC, 7-benzyloxy-4-trifluoromethylcoumarin]
- BFC activity between liver microsomal samples (Cyp3a [3]; C57BL/6J, Cyp3a cluster KO, Cyp3a11 KO liver microsomes): no difference
- BFC oxidation in intestinal microsomes of transgenic mice (Cyp3a [3]; intestinal microsomes): small but statistically significant increase

SMILES: O=C(OCc1ccccc1)c1ccccc1-c1c2ccc(=O)cc-2oc2cc(OCc3ccccc3)ccc12 [DBF, dibenzylfluorescein]
- DBF oxidation by liver microsomes compared to wild type (Cyp3a [4]; Cyp3a cluster KO and Cyp3a11 KO): pronounced decrease
- DBF oxidation by intestinal microsomes, wild type vs knockout strains (Cyp3a [4]; intestinal microsomes): no statistically significant difference

SMILES: Cc1ncc2n1-c1ccc(Cl)cc1C(c1ccccc1F)=NC2 [midazolam]
- Absorption after IP administration ([5]; midazolam 1 mg/kg IP, both mouse strains): fast absorption
- Midazolam AUC / PK, Cyp3a cluster KO compared to wild type ([5]; midazolam 1 mg/kg IP, control (untreated) animals): similar; also recorded: no difference
- Difference in midazolam AUC, Cyp3a cluster KO vs wild type ([5]; rifampicin treated mice): 1.6 times

SMILES: CO[C@H]1/C=C/O[C@@]2(C)Oc3c(C)c(O)c4c(O)c(c(/C=N/N5CCN(C)CC5)c(O)c4c3C2=O)NC(=O)/C(C)=C\C=C\[C@H](C)[C@H](O)[C@@H](C)[C@@H](O)[C@@H](C)[C@H](OC(C)=O)[C@@H]1C [rifampicin]
- Effect of rifampicin treatment on midazolam elimination ([5]; rifampicin 60 mg/kg 3 daily doses, midazolam 1 mg/kg IP day 4, both strains, higher effect in C57BL/6J): accelerated elimination
- EROD metabolism after rifampicin (Cyp1a1 and Cyp1a2): small induction

SMILES: C[C@]12CC[C@H]3[C@@H](CCC4=CC(=O)CC[C@@]43C)[C@@H]1CC[C@@H]2O [testosterone]
- 16β-Hydroxylation of testosterone compared to wild type (Cyp2b10 and Cyp2c29): increased
- 6β-hydroxylation of testosterone compared to wild type (Cyp3a [6]): significant decrease
